Results: DBAASP
Converted amounts (≈) assume the structure as drawn. One block for each compound: values may come before it.

Legend:
Test in all cases: ≥ marks a high value that may be exact or a test limit, other limits are often not marked, values filed in µg/mL are converted to µM
[1] = tested on: Escherichia coli CPCC 100521
[2] = tested on: Staphylococcus aureus CPCC 100520
[3] = tested on: Candida albicans CPCC 400416
Escherichia coli HB101 = tested on: Escherichia coli HB101
[4] = tested on: Staphylococcus aureus Cowan 1
[5] = tested on: Leishmania major MHOM/IL/67/JERICHO-II
[6] = tested on: Staphylococcus aureus ATCC 25923
Enterococcus faecalis = tested on: Enterococcus faecalis
Enterococcus faecium = tested on: Enterococcus faecium
Proteus mirabilis = tested on: Proteus mirabilis
Serratia marcescens = tested on: Serratia marcescens
Candida glabrata 1 = tested on: Candida glabrata 1
Candida albicans 5 = tested on: Candida albicans 5
Cryptococcus neoformans = tested on: Cryptococcus neoformans
Shigella dysenteriae = tested on: Shigella dysenteriae
[7] = tested on: Stenotrophomonas maltophilia
Nocardia asteroides = tested on: Nocardia asteroides
Candida albicans = tested on: Candida albicans
Klebsiella pneumoniae 2 = tested on: Klebsiella pneumoniae 2
Arcyria cinerea = tested on: Arcyria cinerea
[8] = tested on: Staphylococcus epidermidis
Candida albicans 1 = tested on: Candida albicans 1
Bacillus cereus = tested on: Bacillus cereus
[9] = tested on: Salmonella enterica subsp. enterica serovar Paratyphi A
Klebsiella pneumoniae 1 = tested on: Klebsiella pneumoniae 1
[10] = tested on: Pseudomonas aeruginosa ATCC 27853
Proteus vulgaris = tested on: Proteus vulgaris
Klebsiella pneumoniae = tested on: Klebsiella pneumoniae
Pseudomonas aeruginosa 1 = tested on: Pseudomonas aeruginosa 1
Staphylococcus aureus 4 = tested on: Staphylococcus aureus 4
Klebsiella pneumoniae 5 = tested on: Klebsiella pneumoniae 5
Bacillus subtilis = tested on: Bacillus subtilis
Pseudomonas aeruginosa 2 = tested on: Pseudomonas aeruginosa 2
Escherichia coli = tested on: Escherichia coli
Staphylococcus aureus 1 = tested on: Staphylococcus aureus 1
Candida glabrata = tested on: Candida glabrata
Klebsiella oxytoca = tested on: Klebsiella oxytoca
[11] = tested on: Stenotrophomonas maltophilia 2
Acinetobacter baumannii = tested on: Acinetobacter baumannii
[12] = tested on: Candida albicans 08022821
[13] = tested on: Candida albicans ATCC 2002
[14] = tested on: Staphylococcus aureus ATCC 2592
[15] = tested on: Escherichia coli ATCC 25922
[16] = tested on: Candida albicans 08030102
[17] = tested on: Candida albicans 08032815
[18] = tested on: Candida albicans 08030401
[19] = tested on: Pseudomonas aeruginosa LES400
Candida albicans C627 = tested on: Candida albicans C627
[20] = tested on: Pseudomonas aeruginosa H103
[21] = tested on: Pseudomonas aeruginosa 213
[22] = tested on: Enterococcus faecium mic80
[23] = tested on: Staphylococcus aureus C623
[24] = tested on: Escherichia coli ESBL 63103

Structure (SMILES): CC[C@H](C)[C@H](NC(=O)[C@H](CO)NC(=O)[C@H](CCCCN)NC(=O)[C@@H](NC(=O)[C@H](CCCCN)NC(=O)[C@H](CCCCN)NC(=O)[C@H](CCCCN)NC(=O)[C@@H](NC(=O)[C@H](CCCCN)NC(=O)[C@@H]1CSSC[C@H](NC(=O)[C@H](CCCCN)NC(=O)[C@@H](N)CCCCN)C(=O)N[C@@H](CCCCN)C(=O)N[C@@H](Cc2ccccc2)C(=O)N[C@@H](Cc2ccccc2)C(=O)N1)C(C)C)[C@@H](C)CC)C(=O)NCC(=O)N[C@@H](Cc1ccccc1)C(=O)N[C@@H](CCC(N)=O)C(=O)N[C@H](C(=O)N1CCC[C@H]1C(=O)N[C@H](C(=O)N[C@H](C(=O)N[C@@H](CO)C(=O)N[C@H](C(=O)N1CCC[C@H]1C(=O)N[C@@H](Cc1ccccc1)C(=O)N[C@@H](CCCCN)C(=O)O)[C@@H](C)CC)C(C)C)[C@@H](C)CC)[C@@H](C)CC [KKCKFFCKVKKKIKSIGFQIPIVSIPFK]
MIC [6]: > 60.9 µM
MIC (Enterococcus faecalis): 22.8 µM (≈ 75 µg/mL)
MIC (Enterococcus faecium): 2.86 µM (≈ 9.37 µg/mL)
MIC (Proteus mirabilis): 5.71 µM (≈ 18.7 µg/mL)
MIC (Serratia marcescens): ≥ 60.9 µM
MIC (Candida glabrata 1): 2.86 µM (≈ 9.37 µg/mL)
MIC (Candida albicans 5): ≥ 60.9 µM
MIC (Cryptococcus neoformans): ≥ 60.9 µM
MIC (Shigella dysenteriae): 1.43 µM (≈ 4.69 µg/mL)
MIC [7]: 11.4 µM (≈ 37.5 µg/mL)
MIC (Nocardia asteroides): 22.8 µM (≈ 75 µg/mL)
MIC (Candida albicans): 11.4 µM (≈ 37.5 µg/mL)
MIC (Klebsiella pneumoniae 2): 5.71 µM (≈ 18.7 µg/mL)
MIC (Arcyria cinerea): 5.71 µM (≈ 18.7 µg/mL)
MIC [8]: 2.86 µM (≈ 9.37 µg/mL)
MIC (Candida albicans 1): 2.86 µM (≈ 9.37 µg/mL)
MIC (Bacillus cereus): ≥ 60.9 µM
MIC [9]: 11.4 µM (≈ 37.5 µg/mL)
MIC (Klebsiella pneumoniae 1): 11.4 µM (≈ 37.5 µg/mL)
MIC [10]: 2.86 µM (≈ 9.37 µg/mL)
MIC (Proteus vulgaris): ≥ 60.9 µM
MIC (Klebsiella pneumoniae): 22.8 µM (≈ 75 µg/mL)
MIC (Pseudomonas aeruginosa 1): 5.71 µM (≈ 18.7 µg/mL)
MIC (Staphylococcus aureus 4): ≥ 60.9 µM
MIC (Klebsiella pneumoniae 5): ≥ 60.9 µM
MIC (Bacillus subtilis): 2.86 µM (≈ 9.37 µg/mL)
MIC (Pseudomonas aeruginosa 2): 1.43 µM (≈ 4.69 µg/mL)
MIC (Escherichia coli): 4.04 µM (≈ 13.3 µg/mL)
MIC (Staphylococcus aureus 1): 2.02 µM (≈ 6.63 µg/mL)
MIC (Candida glabrata): ≥ 60.9 µM
MIC (Klebsiella oxytoca): 1.43 µM (≈ 4.69 µg/mL)
MIC [11]: 2.86 µM (≈ 9.37 µg/mL)
MIC (Acinetobacter baumannii): ≥ 60.9 µM

Structure (SMILES): CC(C)C[C@H](NC(=O)[C@H](CC(C)C)NC(=O)[C@H](CCCN=C(N)N)NC(=O)[C@H](Cc1c[nH]c2ccccc12)NC(=O)[C@H](Cc1c[nH]c2ccccc12)NC(=O)[C@H](CCCN=C(N)N)NC(=O)[C@H](CCCCN)NC(=O)[C@H](Cc1c[nH]c2ccccc12)NC(=O)[C@@H](N)CCCN=C(N)N)C(=O)O [RWKRWWRLL]
MIC [19]: 22.9 µM (≈ 32 µg/mL)
MIC [6]: 11.4 µM (≈ 16 µg/mL)
MIC (Candida albicans C627): 5.72 µM (≈ 8 µg/mL)
MIC [20]: 22.9 µM (≈ 32 µg/mL)
MIC [21]: ≥ 45.7 µM
MIC [22]: 5.72 µM (≈ 8 µg/mL)
MIC [23]: 5.72 µM (≈ 8 µg/mL)
MIC [24]: 11.4 µM (≈ 16 µg/mL)

The remaining lines, values ahead:

MIC [1]: ≥ 639 µM
MIC [2]: ≥ 160 µM
MIC [3]: ≥ 160 µM
Structure (SMILES): CC[C@H](C)[C@H](N)C(=O)N[C@H](C(=O)NCC(=O)N1CCC[C@H]1C(=O)N[C@H](C(=O)N[C@@H](CC(C)C)C(=O)NCC(=O)N[C@@H](CC(C)C)C(=O)N[C@H](C(=O)NCC(=O)N[C@@H](CCCCN)C(=O)N[C@@H](C)C(=O)N[C@@H](CC(C)C)C(=O)NCC(=O)NCC(=O)N[C@@H](CC(C)C)C(=O)N[C@@H](CC(C)C)C(N)=O)[C@@H](C)CC)C(C)C)[C@@H](C)CC [IIGPVLGLIGKALGGLL]

MIC (Escherichia coli HB101): ≥ 54 µM
MIC [4]: ≥ 54 µM
MIC [5]: ≥ 54.2 µM
Structure (SMILES): CSCC[C@H](NC(=O)[C@@H](NC(=O)[C@H](CCCCN)NC(=O)[C@H](Cc1c[nH]c2ccccc12)NC(=O)[C@H](CC(C)C)NC(=O)[C@H](C)N)[C@@H](C)O)C(=O)N[C@@H](CC(C)C)C(=O)N[C@@H](CCCCN)C(=O)N[C@@H](CCCCN)C(=O)N[C@@H](CC(C)C)C(=O)NCC(=O)N[C@H](C(N)=O)[C@@H](C)O [ALWKTMLKKLGT]

MIC [12]: 7.81 µM (≈ 25 µg/mL)
MIC [13]: 3.13 µM (≈ 9.99 µg/mL)
MIC (Shigella dysenteriae): 15.6 µM (≈ 50 µg/mL)
MIC [14]: 15.6 µM (≈ 50 µg/mL)
MIC [15]: 31.3 µM (≈ 99.9 µg/mL)
MIC [16]: 31.3 µM (≈ 99.9 µg/mL)
MIC [17]: ≥ 62.5 µM
MIC [18]: 15.6 µM (≈ 50 µg/mL)
Structure (SMILES): CC[C@H](C)[C@H](NC(=O)[C@H](CCC(N)=O)NC(=O)[C@H](CCCCN)NC(=O)[C@H](Cc1ccc(O)cc1)NC(=O)[C@H](CC(C)C)NC(=O)[C@H](CCC(N)=O)NC(=O)[C@@H]1CCCN1C(=O)[C@H](CCSC)NC(=O)[C@H](CCCCN)NC(=O)[C@@H](NC(=O)[C@H](CCCN=C(N)N)NC(=O)[C@H](CCCCN)NC(=O)[C@@H](NC(=O)[C@H](CCSC)NC(=O)[C@@H](NC(=O)[C@H](CC(C)C)NC(=O)[C@@H](NC(=O)[C@@H](N)CCCN=C(N)N)[C@@H](C)CC)[C@@H](C)O)[C@@H](C)O)C(C)C)C(=O)N[C@H](C(=O)N[C@H]1CSSC[C@@H](C(=O)O)NC(=O)[C@H]([C@@H](C)O)NC(=O)[C@H](CCCCN)NC(=O)[C@H](Cc2ccccc2)NC(=O)[C@H](CC(C)C)NC(=O)[C@H](CCCN=C(N)N)NC1=O)C(C)C [RILTMTKRVKMPQLYKQIVCRLFKTC]
